# Test results reported in patent publication US5716797A, “Stable two-part reagent for the measurement of creatine kinase activity” (Wako Pure Chemical Industries, Ltd., priority 1995, dated 1998).
# Columns and labels:
# Assay type in all cases: biochemical
# [1] = test system: creatine kinase (CK) in human serum; test: CK activity measured with enzyme solutions containing SH compounds as CK reactivator, fresh and after 1 month of storage (Example 1 / Comparative Example 1); details: for CK activity value, Average: average of 5 samples; for CK activity, relative value: NAC just after preparation = 100%
# Procedure: The resulting solution was adjusted to pH 6.7 with sodium hydroxide and stored at a predetermined temperature for a predetermined period. The thus obtained solution were used as enzyme solutions.
# (§1) Five fresh human serum samples were used.
# (§2) To 8 μl of each sample was added 320 μl of each enzyme solution, followed by preincubation for 5 minutes. Then, 80 μl of the substrate solution was added to initiate the reaction and the change of absorbance per minute was measured for 3 minutes from 2 minutes after the addition of the substrate solution. The CK activity value was calculated from the molecular extinction coefficient of the NADPH produced.
# (§3) As a measuring apparatus, an Autoanalyzer Hitachi Model 7150 was used, and the measurement was carried out at 37° C. by use of dual wavelength (λ1 =405 nm, λ2 =340 nm).
# Enzyme solutions were prepared in the same manner as in Example 1 by use of the same reagents as in Example 1 except for using a predetermined concentration(s) of one or two SH compounds properly selected from the above-mentioned CK reactivators, in place of the CK reactivator(s) used in Example 1.
# CK activity was measured in the same manner as in Example 1.
# [2] = test system: creatine kinase (CK) in human serum; test: CK activity measured with enzyme and substrate solutions stored at 10° C. for up to 7 months (Example 2 / Comparative Example 2); details: for relative value of CK activity: enzyme solution prepared at the time of use = 100%
# Procedure: An enzyme solution was prepared in the same manner as in Example 1 by use of the same reagents as in Example 1 except for using 100 mM of TG in place of the CK reactivator(s) used in Example 1.
# Different 10 fresh human serum samples were used for different measuring operations.
# CK activity was measured by the same procedure as described in Example 1 except for using the above-mentioned enzyme solution and substrate solution, both solutions stored at 10° C. for a predetermined time, and each of the above-mentioned samples.
# An enzyme solution was prepared in the same manner as in Example 1 by use of the same reagents as in Example 1 except for using 26 mM of NAC in place of the CK reactivator(s) used in Example 1.
# CK activity was measured by the same procedure as described in Example 1 except for using the above-mentioned enzyme solution and substrate solution, both solutions stored at 10° C. for a predetermined period, and each of the above-mentioned samples.
# [3] = target: T1, creatine kinase (CK) in human serum (Homo sapiens, UniProt P06732); test: Inhibitory effect of oxidized products of SH compounds on CK activity (HK/G6PDH UV method, NAC 26 mM as reactivator); details: for inhibition of CK activity by oxidized product / activity at 5000 µM: 5 mM oxidized product; for CK activity value / CK activity value, Average: 5 mM SH compound oxidized product; for CK activity value: NAC 26 mM, 37° C.; for CK activity value, Average: average of 5 samples; for activity at 5000 µM: average with enzyme solution containing no SH compound oxidized product = 100%, read-out: CK activity, relative value
# T1 construct: Five fresh human serum samples were used; from tissue; host or cells: fresh human serum
# T1 sequence (P06732 whole entry): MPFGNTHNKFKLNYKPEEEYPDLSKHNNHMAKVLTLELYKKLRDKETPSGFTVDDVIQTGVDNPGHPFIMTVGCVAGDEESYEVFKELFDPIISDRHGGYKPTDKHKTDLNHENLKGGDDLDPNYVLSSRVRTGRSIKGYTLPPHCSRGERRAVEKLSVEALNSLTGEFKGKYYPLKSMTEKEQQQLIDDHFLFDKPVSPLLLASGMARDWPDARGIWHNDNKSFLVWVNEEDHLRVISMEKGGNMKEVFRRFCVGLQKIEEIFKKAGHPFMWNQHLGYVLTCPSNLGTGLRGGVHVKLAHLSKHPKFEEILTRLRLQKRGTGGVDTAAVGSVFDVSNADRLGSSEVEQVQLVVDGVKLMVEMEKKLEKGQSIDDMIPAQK
# Procedure: Investigation on the inhibitory effect of oxidized products of SH compounds on CK activity
# Thus, oxidized products of the SH compounds, respectively, were obtained.
# NAC (26 mM) as CK reactivator, each 5 mM of SH compound oxidized product obtained above, 2.6 mM of ADP, 3.9 u/ml of HK (available from Oriental Yeast Co., Ltd.), 8.0 u/ml of G6PDH (available from Oriental Yeast Co., Ltd.), 2.6 mM of NADP, 21 mM of glucose, 10 mM of magnesium acetate, 6.5 mM of AMP, 0.013 mM of APSA, 0.1% (w/v) of sodium azide and 2 mM of EDTA-2Na were dissolved in 128 mM imidazole-acetate buffer (pH 6.7). The thus obtained solutions were adjusted to pH 6.7 with sodium hydroxide to obtain enzyme solutions.
# An enzyme solution containing no SH compound oxidized product was prepared as a control standard solution.
# as §1, §2, §3
# Tables 2 and 3 show the CK activity values of the 5 samples in each case and the average thereof.
smiles,measurement,setting,value
"CC(=O)N[C@@H](CS)C(=O)O [NAC, N-acetylcysteine]",CK activity value,"[1]; Sample 1, enzyme solution just after preparation, TG 100 mM, 2ME 26 mM, 2MES 26 mM, NAC 26 mM",183 IU/l
same,CK activity value,"[1]; Sample 1, enzyme solution stored at 10° C. for 1 month, TG 100, 2ME 26, 2MES 26, NAC 26, L-cysteine 6.5, GSH 12, TDG 5, DTT 6.5 mM",184 IU/l
same,CK activity value,"[1]; Sample 1, enzyme solution stored at 20° C. for 1 month, TG 100, 2ME 26, 2MES 26, NAC 26, L-cysteine 6.5, GSH 12, TDG 5, DTT 6.5 mM",166 IU/l
same,CK activity value,"[1]; Sample 2, enzyme solution just after preparation, TG 100 mM, 2ME 26 mM, 2MES 26 mM, NAC 26 mM",544 IU/l
same,CK activity value,"[1]; Sample 2, enzyme solution stored at 10° C. for 1 month, TG 100, 2ME 26, 2MES 26, NAC 26, L-cysteine 6.5, GSH 12, TDG 5, DTT 6.5 mM",550 IU/l
same,CK activity value,"[1]; Sample 2, enzyme solution stored at 20° C. for 1 month, TG 100, 2ME 26, 2MES 26, NAC 26, L-cysteine 6.5, GSH 12, TDG 5, DTT 6.5 mM",499 IU/l
same,CK activity value,"[1]; Sample 3, enzyme solution just after preparation, TG 100 mM, 2ME 26 mM, 2MES 26 mM, NAC 26 mM",151 IU/l
same,CK activity value,"[1]; Sample 3, enzyme solution stored at 10° C. for 1 month, TG 100, 2ME 26, 2MES 26, NAC 26, L-cysteine 6.5, GSH 12, TDG 5, DTT 6.5 mM",152 IU/l
same,CK activity value,"[1]; Sample 3, enzyme solution stored at 20° C. for 1 month, TG 100, 2ME 26, 2MES 26, NAC 26, L-cysteine 6.5, GSH 12, TDG 5, DTT 6.5 mM",136 IU/l
same,CK activity value,"[1]; Sample 4, enzyme solution just after preparation, TG 100 mM, 2ME 26 mM, 2MES 26 mM, NAC 26 mM",56 IU/l
same,CK activity value,"[1]; Sample 4, enzyme solution stored at 10° C. for 1 month, TG 100, 2ME 26, 2MES 26, NAC 26, L-cysteine 6.5, GSH 12, TDG 5, DTT 6.5 mM",55 IU/l
same,CK activity value,"[1]; Sample 4, enzyme solution stored at 20° C. for 1 month, TG 100, 2ME 26, 2MES 26, NAC 26, L-cysteine 6.5, GSH 12, TDG 5, DTT 6.5 mM",50 IU/l
same,CK activity value,"[1]; Sample 5, enzyme solution just after preparation, TG 100 mM, 2ME 26 mM, 2MES 26 mM, NAC 26 mM",87 IU/l
same,CK activity value,"[1]; Sample 5, enzyme solution stored at 10° C. for 1 month, TG 100, 2ME 26, 2MES 26, NAC 26, L-cysteine 6.5, GSH 12, TDG 5, DTT 6.5 mM",88 IU/l
same,CK activity value,"[1]; Sample 5, enzyme solution stored at 20° C. for 1 month, TG 100, 2ME 26, 2MES 26, NAC 26, L-cysteine 6.5, GSH 12, TDG 5, DTT 6.5 mM",78 IU/l
same,"CK activity value, Average","[1]; enzyme solution just after preparation, TG 100 mM, 2ME 26 mM, 2MES 26 mM, NAC 26 mM",204 IU/l
same,"CK activity value, Average","[1]; enzyme solution stored at 10° C. for 1 month, TG 100, 2ME 26, 2MES 26, NAC 26, L-cysteine 6.5, GSH 12, TDG 5, DTT 6.5 mM",206 IU/l
same,"CK activity value, Average","[1]; enzyme solution stored at 20° C. for 1 month, TG 100, 2ME 26, 2MES 26, NAC 26, L-cysteine 6.5, GSH 12, TDG 5, DTT 6.5 mM",186 IU/l
same,"CK activity, relative value",[1]; enzyme solution just after preparation,100.0%
same,"CK activity, relative value",[1]; enzyme solution stored at 10° C. for 1 month,101.0%
same,"CK activity, relative value",[1]; enzyme solution stored at 20° C. for 1 month,91.2%
same,measured value of CK activity after storage,[2]; after 3 months of storage at 10° C.,markedly lowered
same,average of CK activity values,"[2]; enzyme solution prepared at the time of use, 1 month measurement, 10 samples",196 IU/l.
same,average of CK activity values,"[2]; enzyme solution prepared at the time of use, 3 month measurement, 10 samples",192 IU/l.
same,average of CK activity values,"[2]; enzyme solution prepared at the time of use, 6 month measurement, 10 samples",162 IU/l.
same,average of CK activity values,"[2]; enzyme solution prepared at the time of use, 7 month measurement, 10 samples",192 IU/l.
same,average of CK activity values,"[2]; just after preparation, average of 10 human serum samples, TG 100 mM or NAC 26 mM",234 IU/l.
same,average of CK activity values,"[2]; solutions stored at 10° C. for 1 month, 10 samples",190 IU/l.
same,average of CK activity values,"[2]; solutions stored at 10° C. for 3 month, 10 samples",146 IU/l.
same,average of CK activity values,"[2]; solutions stored at 10° C. for 6 month, 10 samples",64 IU/l.
same,average of CK activity values,"[2]; solutions stored at 10° C. for 7 month, 10 samples",62 IU/l.
same,relative value of CK activity,[2]; stored at 10° C. for 1 month,96.9%
same,relative value of CK activity,[2]; stored at 10° C. for 3 month,76.0%
same,relative value of CK activity,[2]; stored at 10° C. for 6 month,39.5%
same,relative value of CK activity,[2]; stored at 10° C. for 7 month,32.3%
OC[C@H]1O[C@@H](SS[C@@H]2O[C@H](CO)[C@@H](O)[C@H](O)[C@H]2O)[C@H](O)[C@@H](O)[C@@H]1O [TDG oxidized product],inhibition of CK activity by oxidized product,[3],hardly inhibited CK activity
same,CK activity value,[3]; Sample 1 (fresh human serum),136 IU/l.
same,CK activity value,[3]; Sample 2,388 IU/l.
same,CK activity value,[3]; Sample 3,102 IU/l.
same,CK activity value,[3]; Sample 4,302 IU/l.
same,CK activity value,[3]; Sample 5,90 IU/l.
same,"CK activity value, Average",[3],204 IU/l.
same,activity at 5000 µM,[3],90.2%
OCC(O)CSSCC(O)CO (stereo not drawn) [TG oxidized product],inhibition of CK activity by oxidized product,[3],hardly inhibited CK activity
same,CK activity value,[3]; Sample 1 (fresh human serum),153 IU/l.
same,CK activity value,[3]; Sample 2,422 IU/l.
same,CK activity value,[3]; Sample 3,112 IU/l.
same,CK activity value,[3]; Sample 4,333 IU/l.
same,CK activity value,[3]; Sample 5,106 IU/l.
same,"CK activity value, Average",[3],226 IU/l.
same,activity at 5000 µM,[3],100%
